What was measured:
Staphylococcus aureus = assay: Antimicrobial screening by agar dilution, Staphylococcus aureus; format: cell-based; details: after 10, 20, 40 and 60 minutes at all dilutions 1:100, 1:200, 1:400, 1:800
Method: (§1) The antibacterial properties of the synthesized compound ethyl 2-[9-(2-hydroxyquinolin-3-yl)-1,8-dioxo-3,4,9,10-tetrahydroacridine-10-yl]-acetate were studied by the method of agar dilution. Test solutions of each compound was prepared in concentration of 1% using dimethylformamide as a solvent then they are diluted in physiological solution to obtain the final experimental dilutions 1:100, 1:200, 1:400, 1:800. The effect of these substances are compared with furacillin in a controllable study. The testing microbes used were gram positive bacteria Staphylococcus aureus, gram negative bacteria Pseudomonas aeruginosa and Escherichia coli and Candida albicans fungus. The experiments used for this survey were meat-pentonlu agar (EPA) for cultivation of bacteria and Saburo environment for the fungus. Each experiment used 1 mL of test solution on each plate […]. Two drops of emulsified with microbes feel were added. All experimental samples were taken from the agar after 10, 20, 40, 60 minutes in the environment on the basis of Patrk planted. The bacteria were cultivated at a temperature of 37° C. for 1 day and the mushroom was kept in a thermostat for […] at a temperature of 28° C. Then results were checked.

Candida albicans = assay: Antimicrobial (antifungal) screening by agar dilution, Candida albicans; format: cell-based; details: after 10, 20, 40 and 60 minutes at all dilutions 1:100, 1:200, 1:400, 1:800
Method: as §1

Pseudomonas aeruginosa = assay: Antimicrobial screening by agar dilution, Pseudomonas aeruginosa; format: cell-based; details: after 10, 20, 40 and 60 minutes at all dilutions 1:100, 1:200, 1:400, 1:800
Method: as §1

Escherichia coli = assay: Antimicrobial screening by agar dilution, Escherichia coli; format: cell-based; details: after 10, 20, 40 and 60 minutes at all dilutions 1:100, 1:200, 1:400, 1:800
Method: as §1

melting point: 228 °C
Compound: CCOC(=O)CN1C2=C(C(=O)CCC2)C(c2cc3ccccc3nc2O)C2=C1CCCC2=O [ethyl 2-[9-(2-hydroxyquinolin-3-yl)-1,8-dioxo-3,4,9,10-tetrahydroacridine-10-yl]-acetate]
inhibition activity (Staphylococcus aureus): highest inhibition activity
inhibition activity (Candida albicans): highest inhibition activity
inhibition activity (Pseudomonas aeruginosa): highest inhibition activity
inhibition activity (Escherichia coli): highest inhibition activity

— patent US11970454B1, “Ethyl-2[9-2(2-hydroxyquinolin-3-yl)-1,8-dioxo-3,4,9,10-tetrahydroacridine-10-yl]-acetate as an antimicrobial compound” (KING FAISAL UNIVERSITY, priority 2023, dated 2024)
